Data reported in patent US7335500B2, “Production of fucosylated carbohydrates by enzymatic fucosylation synthesis of sugar nucleotides; and in situ regeneration of GDP-fucose” (The Scripps Research Institute, priority 1991, dated 2008).
Like-named read-outs stand apart in the source and are kept apart here.

How the values were obtained:
[1] = target: T1, human plasma type α1,3FucT (Homo sapiens, UniProt Q11128); experiment: Substrate specificity and inhibition study of α1,3FucT (GDP-14C-Fuc transfer assay); assay type: biochemical; conditions: for IC50 / Vrel (relative maximal velocities) / Km: 0.1 mM GDP-Fuc; for IC50: 10 mM Mn2+ and 10 mM LacNAc at pH 6.2 and 37° C.; for inhibition in combination with GDP: GDP present at its IC50 of 0.05 mM, FIG. 3: 34 mM Compound 50, 0.2 mM 14C-GDP-fucose, 20 mM MnCl2, pH 6.2; for mode of inhibition: versus LacNAc; for Vrel (relative maximal velocities): 10 mM MnCl2 and 10 mM Galβ1,4GlcNAc, Galβ1,4GlcNAc = 100; for Km: acceptor substrate, 10 mM MnCl2; for relative maximum velocity (Vrel) based on LacNAc: relative rate at Vmax
T1 sequence (Q11128 1-374): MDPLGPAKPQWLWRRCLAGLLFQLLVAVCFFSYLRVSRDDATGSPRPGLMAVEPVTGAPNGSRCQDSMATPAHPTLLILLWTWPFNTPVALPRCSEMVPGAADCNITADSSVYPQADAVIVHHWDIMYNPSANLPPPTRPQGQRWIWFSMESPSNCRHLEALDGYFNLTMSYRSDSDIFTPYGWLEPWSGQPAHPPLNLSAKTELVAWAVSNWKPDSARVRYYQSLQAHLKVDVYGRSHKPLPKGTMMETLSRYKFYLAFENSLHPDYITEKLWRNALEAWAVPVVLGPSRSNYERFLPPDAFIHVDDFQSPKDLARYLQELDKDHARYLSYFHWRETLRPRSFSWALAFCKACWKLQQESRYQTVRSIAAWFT
Experimental: (§1) The assay procedure was essentially the same as described previously [Fukowska-Latallo et al, Gene & Development, 4:1288 (1990)] with some modifications. A stock mixture containing 0.25 mM GDP-^14C-Fuc (5000 cpm/mL), 6.25 mM ATP, 25 mM MnCl2 and 62.5 mM sodium cacodylate buffer, pH 6.2 was mixed freshly and kept on ice. […] The incubation was carried out at 37° C. for 30 to 240 minutes depending upon the acceptor under study. Separate assays in the absence of acceptor were used to correct for background hydrolysis of GDP-Fuc. Upon completion of incubation, 400 μL of a 25 percent (v/v) suspension of QAE-Sephadex was added. […] From the supernatant fluid, 200 μL were extracted and mixed with 10 mL of scintillation cocktail. The radioactivity was counted on a scintillation counter. […] This assay can be run in the absence of ATP.

GalT [2] = target: T2, GalT (Bos taurus, UniProt P08037); conditions: cited from earlier work
T2 construct: purchased Sigma
T2 sequence (P08037 79-402 limits assumed): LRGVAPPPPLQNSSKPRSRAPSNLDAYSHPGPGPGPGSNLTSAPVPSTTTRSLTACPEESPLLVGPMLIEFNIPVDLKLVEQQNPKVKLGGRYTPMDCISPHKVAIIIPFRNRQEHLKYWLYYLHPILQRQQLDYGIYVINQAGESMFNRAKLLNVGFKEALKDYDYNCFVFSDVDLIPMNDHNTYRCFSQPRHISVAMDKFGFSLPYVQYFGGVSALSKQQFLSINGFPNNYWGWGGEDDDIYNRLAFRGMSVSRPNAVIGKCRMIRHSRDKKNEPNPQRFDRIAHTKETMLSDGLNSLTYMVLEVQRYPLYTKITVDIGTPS

α1,3/4Fucosyltransferase = target: T3, α1,3/4Fucosyltransferase (Homo sapiens, UniProt P21217); experiment: Substrate specificity and inhibition study of α1,3/4FucT (GDP-14C-Fuc transfer assay); assay type: biochemical; conditions: for Vrel (relative velocities): 0.20 mM GDP-Fuc, 20 mM MnCl2, 10 mM acceptor, Galβ1,4GlcNAc = 100
T3 sequence (P21217 1-361): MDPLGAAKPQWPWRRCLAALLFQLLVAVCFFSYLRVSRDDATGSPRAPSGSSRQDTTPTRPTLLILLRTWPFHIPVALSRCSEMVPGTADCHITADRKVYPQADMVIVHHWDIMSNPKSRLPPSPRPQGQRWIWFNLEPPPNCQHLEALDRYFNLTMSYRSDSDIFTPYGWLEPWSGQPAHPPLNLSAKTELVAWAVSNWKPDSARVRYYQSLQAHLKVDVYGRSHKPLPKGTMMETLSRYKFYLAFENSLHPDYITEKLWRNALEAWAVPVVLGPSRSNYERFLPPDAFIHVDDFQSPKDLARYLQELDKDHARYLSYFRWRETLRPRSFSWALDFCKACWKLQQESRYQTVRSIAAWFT
Experimental: as §1

GalT [3] = target: T2, GalT; experiment: Kinetic study of GalT (rate of LacNAc formation, UDP-14C-Gal); assay type: biochemical; conditions: 100 mM cacodylate pH 7.5, 9.3 mM Mn2+, 0.1 mM UDP-Gal, 20° C.
Experimental: Initial velocities of the enzyme reaction were determined by measuring the rate of LacNAc formation with a slight modification of the assay by Pierce et al. [Pierce et al., Anal. Biochem., 102:441 (1980)]. All the reactions were carried out in 100 mM cacodylate buffer (pH 7.5) with fixed concentrations of Mn^2+ (9.3 mm) and UDP-Gal (0.1 mM; 58.5 cpm/pmol of UDP-^14C-Gal) in […] of solution. The reaction was initiated by the addition of GalT (0.05 U, […]; from Sigma) and permitted to stand at 20° C. for 30 minutes. Nonspecific hydrolysis of UDP-Gal was measured by the control reaction in the absence of GalT. The reaction was stopped by passing through a column of QAE-Sephadex ([…]), and eluted by gentle air pressure to remove the unreacted UDP-Gal. The reaction vial was rinsed twice with […] of water each and passed through the resin column. The filtrates were collected and directly transferred into a scintillation vial. The scintillation fluid was added to the vial, and then radioactivity was counted by a liquid scintillation counter. […] Res., 159:315 (1987)] and Ki (0.46±0.06 mM) for UDP. Similarly, IC50 value of UDP for GalT was determined using different concentration of UDP.

In the case of `OCC1N[C@@H](CO)C(O)[C@@H]1O` (stereo partly shown), the IC50 [1] is reported as 52 mM.
In the case of `CC1N[C@@H](CO)C(O)[C@@H]1O` (stereo partly drawn) [Compound 50, (2R)-Methyl-(5S)-hydroxymethyl-(3R, 4R)-dihydroxyprollidine], the IC50 [1] is reported as 34 mM, the “inhibition in combination with GDP” value [1] is reported as “profound, synergistic inhibition” and the mode of inhibition [1] is reported as “competitive inhibitor”.
With `CC1NC(CO)C(O)C1O` (stereo not shown) [Compound 53] the IC50 [1] was 80 mM, the “inhibition in combination with GDP” value [1] was “profound, synergistic inhibition” and the mode of inhibition [1] was “competitive inhibitor”.
For `OC[C@H]1NC[C@H](O)[C@@H](O)[C@@H]1O` [Deoxynojirimycin], the “substrate for α1,4GalT (in words)” value (GalT [2]; Wong et al., J. Am. Chem. Soc., 113:8137-8145 (1991)) is listed as “a substrate”.
`Nc1nc2c(ncn2[C@@H]2O[C@H](COP(=O)(O)OP(=O)(O)O)[C@@H](O)[C@H]2O)c(=O)[nH]1` [GDP, guanosine 5′-diphosphate] gave an IC50 [1] of 0.05 mM, a Ki ([1]; footnote of Table 3, read-out: Ki) of 19 mM and a Ki ([1]; noncompetitive inhibitor versus LacNAc, read-out: Kii) of 0.13 mM. The Ki ([1]; noncompetitive inhibitor versus LacNAc, read-out: Kis) was 0.16 mM and the mode of inhibition [1] was “noncompetitive inhibitor”.
With `C[C@@H]1OC(OP(=O)(O)OP(=O)(O)OC[C@H]2O[C@@H](n3cnc4c(=O)[nH]c(N)nc43)[C@H](O)[C@@H]2O)[C@@H](O)[C@H](O)[C@@H]1O` (stereo partly shown) [GDP-Fuc, guanosine 5′-diphospho fucose] the “inhibition of α1,3/4FucT (in words)” value (α1,3/4Fucosyltransferase) was “not an inhibitor” and the “inhibition of α1,3FucT (in words)” value ([1]; at concentration above 0.2 mM in the presence of 10 mM LacNAc) was “potent inhibitor”.
`Nc1nc2c(ncn2C2OC(COP(=O)(O)OP(=O)(O)OC3OC(CO)C(O)C(O)C3O)C(O)C2O)c(=O)[nH]1` (stereo not shown) [GDP-Man, guanosine 5′-diphospho-mannose] gave an IC50 [1] of 2 mM.
In the case of `CC(=O)N[C@H]1C(O)O[C@H](CO)[C@H](O)[C@@H]1O[C@@H]1O[C@H](CO)[C@H](O)[C@H](O)[C@H]1O` (stereo partly shown) [Galβ1,3GalNAc], the IC50 [1] is reported as over 100 mM.
For `CC(=O)N[C@H]1C(O)O[C@H](CO)[C@@H](O)[C@@H]1O[C@@H]1O[C@H](CO)[C@H](O)[C@H](O)[C@H]1O` (stereo partly shown) [Galβ1,3GlcNAc], the “Vrel (relative velocities)” value (α1,3/4Fucosyltransferase) was 580, the IC50 [1] was over 50 mM and the “Vrel (relative maximal velocities)” value [1] was 130.
For `C=CCO[C@@H]1O[C@H](CO)[C@@H](O[C@@H]2O[C@H](CO)[C@H](O)[C@H](O)[C@H]2O)C[C@H]1NC(C)=O` [Galβ1,4(3-deoxy)GlcNAcβOallyl], the “inhibition of α1,3FucT (in words)” value ([1]; acceptor substrate analog) was “weak inhibitor”.
In the case of `OC[C@H]1O[C@@H](O[C@H]2[C@H](O)[C@@H](O)C(O)S[C@@H]2CO)[C@H](O)[C@@H](O)[C@H]1O` (stereo partly shown) [Galβ1,4(5-thioGlc), Galβ1,4(5-thio)Glc], the “Vrel (relative velocities)” value (α1,3/4Fucosyltransferase) is reported as 310, the “Vrel (relative maximal velocities)” value [1] is reported as 51 and the Km [1] is reported as 12 mM.
For `CC(=O)N[C@H]1C(O)O[C@H](CO)[C@H](O[C@@H]2O[C@H](CO)[C@H](O)[C@H](O)[C@H]2O)[C@@H]1O` (stereo partly shown) [Galβ1,4GalNAc], the “Vrel (relative velocities)” value (α1,3/4Fucosyltransferase) was 27.
For `C=CCO[C@@H]1O[C@H](CO)[C@@H](O[C@@H]2O[C@H](CO)[C@H](O)[C@H](O)[C@H]2O)[C@H](O)[C@H]1NC(C)=O` [Galβ1,4GlcNAcβOallyl], the “Vrel (relative maximal velocities)” value [1] was 64 and the Km [1] was 16 mM.
With `OC[C@H]1O[C@@H](O[C@H]2[C@H](O)[C@@H](O)C(O)O[C@@H]2CO)[C@H](O)[C@@H](O)[C@H]1O` (stereo partly shown) [Galβ1,4Glc] the “Vrel (relative velocities)” value (α1,3/4Fucosyltransferase) was 120, the “Vrel (relative maximal velocities)” value [1] was 150 and the “relative maximum velocity (Vrel) based on LacNAc” value (shortened to “relative maximum velocity”) [1] was 150%.
In the case of `OC[C@H]1NC[C@H](O)[C@@H](O)[C@@H]1O[C@@H]1O[C@H](CO)[C@H](O)[C@H](O)[C@H]1O` [Galβ1,4deoxynojirimycin], the IC50 (α1,3/4Fucosyltransferase; inhibitor concentration required to give 50% inhibition with 0.2 mM GDP-Fuc) is reported as 40 mM and the IC50 [1] is reported as 8 mM.
In the case of `CC(=O)N[C@H]1C(O)O[C@H](CO)[C@@H](O)[C@@H]1O` (stereo partly shown) [GlcNAc, N-acetylglucosamine], the Km (GalT [2]; reported in Palcic et al., Carbohydr. Res., 159:315 (1987)) is given as 1.3 ± 1 mM.
With `CC(=O)N[C@H]1[C@H](O[C@H]2[C@H](O)[C@@H](NC(C)=O)C(O)O[C@@H]2CO)O[C@H](CO)[C@@H](O)[C@@H]1O` (stereo partly shown) [GlcNAcβ1,4GlcNAc] the “Vrel (relative velocities)” value (α1,3/4Fucosyltransferase) was 23 and the IC50 [1] was over 50 mM.
In the case of `CC(=O)N[C@H]1[C@H](OC[C@H]2O[C@@H](O[C@H]3[C@H](O)[C@@H](O)C(O)O[C@@H]3CO)[C@H](O)[C@@H](O)[C@H]2O)O[C@H](CO)[C@@H](O)[C@@H]1O` (stereo partly shown) [GlcNAcβ1,6Galβ1,4Glc], the “Vrel (relative velocities)” value (α1,3/4Fucosyltransferase) is reported as 13.
In the case of `CC(=O)NC1C(O)OC(CO)C(OC2OC(CO)C(O)C(OC3(C(=O)O)CC(O)C(NC(C)=O)C(C(O)C(O)CO)O3)C2O)C1O` (stereo not shown) [NeuAcα2,3Galβ1,4GlcNAc], the “Vrel (relative velocities)” value (α1,3/4Fucosyltransferase) is reported as 60, the “Vrel (relative maximal velocities)” value [1] is reported as 620 and the Km [1] is reported as 100 mM. For the same compound, the “relative maximum velocity” value [1] was 620%.
In the case of `CC(=O)N[C@H]1C([C@H](O)[C@H](O)CO)O[C@@](OC2[C@H](O)C(O[C@H]3C(O)C=COC3CO)OC(CO)[C@@H]2O)(C(=O)O)C[C@H]1O` (stereo partly shown) [NeuAcα2,3Galβ1,4Glucal], the “Vrel (relative maximal velocities)” value [1] is reported as 330, the Km [1] is reported as 64 mM and the “relative maximum velocity” value [1] is reported as 330%.
With `CC(=O)N[C@@H]1[C@@H](O)[C@H](O[C@@H]2O[C@H](CO[C@]3(C(=O)O)C[C@H](O)[C@@H](NC(C)=O)[C@H]([C@H](O)[C@H](O)CO)O3)[C@H](O)[C@H](O)[C@H]2O)[C@@H](CO)O[C@H]1O` [NeuAcα2,6Galβ1,4GlcNAc] the “Vrel (relative maximal velocities)” value [1] was 13, the Km [1] was 70 mM and the “times less active as a substrate than the α2,3-isomer” value ([1]; compared with NeuAcα2,3Galβ1,4GlcNAc) was “about 50 times”.
Compound `O=c1ccn([C@@H]2O[C@H](COP(=O)(O)OP(=O)(O)O)[C@@H](O)[C@H]2O)c(=O)[nH]1` [UDP, uridine 5′-diphosphate] has a Ki (GalT [3]) of 0.46 mM.
With Fucα1,2Galβ1,4Glc the “Vrel (relative velocities)” value (α1,3/4Fucosyltransferase) was 250.
In the case of Galβ1,4GlcNAc, the “Vrel (relative velocities)” value (α1,3/4Fucosyltransferase) is reported as 100, the “Vrel (relative maximal velocities)” value [1] is reported as 100 and the Km [1] is reported as 35 mM.
In the case of NeuAcα2,3Galβ1,4GlcNAcβOallyl, the “Vrel (relative maximal velocities)” value [1] is reported as 380.
